In US11084786B2, “Compounds and pharmaceutical composition associated with ubiquitination-proteasome system” (CALGENT BIOTECHNOLOGY CO., LTD., priority 2015, dated 2021):

Experiments:
Type in all cases: cell-based
MDA-MB-231 = test: Growth inhibition assay (MTT), MDA-MB-231; conditions: Homo sapiens, MDA-MB-231 cells, 48 hours exposure, read-out: MDA-MB-231 GI50 (μM) Mean ± S.E.
Protocol: (§1) Antiproliferative Activity Against Human Normal and Cancer Cell Lines Using Growth Inhibition Assay (GI50)
(§2) The compounds of the invention were subjected to growth inhibition assay. Cells were seeded in 96-well plastic plates and exposed to MPT0L132, MPT0L133, and MPT0L134 for 48 hours. Cell viability was assessed using the 3-(4,5-dimethylthiazol-2-yl)-2,5-diphenyltetrazolium bromide assay. Growth inhibition was expressed as the percentage of surviving cells in drug-treated versus DMSO-treated control cells.

HL-60 = test: Growth inhibition assay (MTT), HL-60; conditions: Homo sapiens, HL-60 cells, 48 hours exposure, read-out: HL-60 IC50 (μM) Mean ± S.E.
Protocol: as §1, §2

HCT-116 = test: Growth inhibition assay (MTT), HCT-116; conditions: Homo sapiens, HCT-116 cells, 48 hours exposure, read-out: HCT-116 GI50 (μM) Mean ± S.E.
Protocol: as §1, §2

Hep3B = test: Growth inhibition assay (MTT), Hep3B; conditions: Homo sapiens, Hep3B cells, 48 hours exposure, read-out: Hep3B GI50 (μM) Mean ± S.E.
Protocol: as §1, §2

| GI50 (MDA-MB-231) | IC50 (HL-60) | GI50 (HCT-116) | GI50 (Hep3B) | Structure (SMILES) |
| --- | --- | --- | --- | --- |
| 10 to 30 µM | 2.5 ± 0.15 µM | 3.69 ± 0.24 µM | 10 to 30 µM | CN(C)CCNC(=O)c1ccc(CNC2=C(Cl)C(=O)c3ccccc3C2=O)cc1 [MPT0L132, 4-(((3-chloro-1,4-dioxo-1,4-dihydronaphthalen-2-yl)amino)methyl)-N-(2-(dimethylamino)ethyl)benzamide] |
| 10 to 30 µM | 1.67 ± 0.27 µM | 4.04 ± 0.65 µM | 10 to 30 µM | O=C(NCCN1CCCC1)c1ccc(CNC2=C(Cl)C(=O)c3ccccc3C2=O)cc1 [MPT0L133, 4-(((3-chloro-1,4-dioxo-1,4-dihydronaphthalen-2-yl)amino)methyl)-N-(2-(pyrrolidin-1-yl)ethyl)benzamide] |
| 10 to 30 µM | 2.52 ± 0.12 µM | 3.53 ± 0.24 µM | 10 to 30 µM | CCN(CC)CCNC(=O)c1ccc(CNC2=C(Cl)C(=O)c3ccccc3C2=O)cc1 [MPT0L134, 4-(((3-chloro-1,4-dioxo-1,4-dihydronaphthalen-2-yl)amino)methyl)-N-(2-(diethylamino)ethyl)benzamide] |
